In patent US20230087351A1, “METHYL 2-ALLYL-1 -METHYL-3-OXOINDOLINE-2-C[…] 9A-ALLYL-1,2,3,9A-TETRAHYDRO- 9H-PYRROLO[1,2-A]INDOL-9-ONE DERIVATIVES AND RELATED COMPOUNDS FOR USE AS F[…] FOR LABELLING OF DRUGS, AMINO ACIDS AN PROTEINS” (UNIVERSITY OF SALFORD, priority 2019, published 2023):

Columns and labels:
δ-opioid receptors = δ-opioid receptors (Homo sapiens, UniProt P41143); conditions: relative to morphine; cited from earlier work
μ-opioid receptors = μ-opioid receptors (Homo sapiens, UniProt P35372); conditions: relative to morphine; cited from earlier work
Sequence of μ-opioid receptors (P35372 whole entry): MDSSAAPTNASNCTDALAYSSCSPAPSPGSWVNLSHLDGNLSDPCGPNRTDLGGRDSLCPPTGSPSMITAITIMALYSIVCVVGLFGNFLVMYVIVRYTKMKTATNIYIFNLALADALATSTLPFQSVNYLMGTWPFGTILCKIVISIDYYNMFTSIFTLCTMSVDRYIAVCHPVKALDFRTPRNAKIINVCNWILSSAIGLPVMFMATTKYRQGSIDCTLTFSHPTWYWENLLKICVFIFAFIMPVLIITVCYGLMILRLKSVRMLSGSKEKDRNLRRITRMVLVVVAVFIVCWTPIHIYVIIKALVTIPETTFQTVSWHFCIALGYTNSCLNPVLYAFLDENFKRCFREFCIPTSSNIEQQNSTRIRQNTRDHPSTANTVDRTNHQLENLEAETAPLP

Sequence of δ-opioid receptors (P41143 whole entry): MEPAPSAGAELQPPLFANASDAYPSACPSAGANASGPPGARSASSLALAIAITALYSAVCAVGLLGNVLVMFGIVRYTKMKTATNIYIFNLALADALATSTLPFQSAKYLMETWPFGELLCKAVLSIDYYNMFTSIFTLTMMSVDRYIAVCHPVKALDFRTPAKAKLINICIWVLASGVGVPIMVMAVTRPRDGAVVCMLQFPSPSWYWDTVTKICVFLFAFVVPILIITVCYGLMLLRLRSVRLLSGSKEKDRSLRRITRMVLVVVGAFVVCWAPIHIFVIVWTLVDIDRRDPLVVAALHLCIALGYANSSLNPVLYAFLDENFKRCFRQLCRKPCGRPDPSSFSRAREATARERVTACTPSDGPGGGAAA

Row | SMILES | melting point | higher potency than morphine at δ-opioid receptors (δ-opioid receptors) | higher potency than morphine at μ-opioid receptors (μ-opioid receptors)
1 | C=CCC1(C(=O)OC)C(=O)c2ccccc2N1C (stereo not drawn) | 90 to 93 °C |  | 
2 | C=CCC1(C(=O)OC)C(=O)c2c(OC)cccc2N1C (stereo not drawn) | 125 to 127 °C |  | 
3 | C=CC(C)(C)C1(C(=O)OC)C(=O)c2c(OC)cccc2N1C (stereo not drawn) | 86 to 88 °C |  | 
4 | C=CC(C)C1(C(=O)OC)C(=O)c2c(OC)cccc2N1C (stereo not drawn) | 89 to 91 °C |  | 
5 | C=CCC1(C(=O)OC)C(=O)c2c(C)cccc2N1C (stereo not drawn) | 98 to 100 °C |  | 
6 | C=CCC1(C(=O)OC)C(=O)c2c(ccc3ccccc23)N1C (stereo not drawn) | 144 to 147 °C |  | 
7 | C=CCC1(C(=O)OC)C(=O)c2cc(OC)ccc2N1C (stereo not drawn) | 99 to 101 °C |  | 
8 | CC[C@@H]1CN2CC[C@]3(Nc4cccc(OC)c4C3=O)[C@@H]2C[C@@H]1/C(=C\OC)C(=O)OC [mitrogynine pseudoindoxyl] |  | 35 fold | 20 fold
